The target of experiment [1] is T1, plasma dipeptidylpeptidase IV (Homo sapiens, UniProt P27487).
T1 construct: 20 μL of plasma diluted 8-fold with saline in a well of a 96-well flat bottom plate; from tissue
Kind of experiment: In vitro dipeptidylpeptidase IV inhibitory activity (plasma, H-Gly-Pro-AMC fluorometry). To be noted: plasma diluted 8-fold, H-Gly-Pro-AMC.HBr substrate, room temperature 20 minutes. It is filed as biochemical. The procedure:
The concentration of free 7-amino-4-methyl-coumarin (AMC) generated by hydrolysis of H-Gly-Pro-AMC.HBr substrate by plasma dipeptidylpeptidase IV was determined by fluorometry.
A 20 μL of buffer (25 mmol/L hepes, 140 mmol/L sodium chloride, 1% bovine serum albumin, 80 mmol/L magnesium chloride hexahydrate, pH 7.4) containing each compound was added to 20 μL of plasma diluted 8-fold with saline in a well of a 96-well flat bottom plate. The plate was left at room temperature for 5 minutes and 10 μL of 0.1 mmol/L H-Gly-Pro-AMC.HBr solution was added to each well to initiate the reaction. […] Using a fluorescent plate reader, the free AMC concentration was determined by exciting the samples at 355 nm and measuring the fluorescence intensity at 460 nm.

Experiment [2] has as its target T2, plasma dipeptidylpeptidase IV (Mus musculus, UniProt P28843).
T2 construct: The blood samples were centrifuged at 6000 rpm for 2 minutes to separate plasma; tissue Charles River Laboratories Japan; host or cells: plasma of male ICR mice
Kind of experiment: Inhibition of plasma dipeptidylpeptidase IV activity in mice by oral administration. It is filed as in vivo. Particulars: male ICR mice, 0.1 mg/mL suspension at 10 mL/kg, 30 minutes after administration. The procedure: Each compound was suspended in 0.3% sodium carboxymethylcellulose to a concentration of 0.1 mg/mL. The preparation was orally administered to 8-week old male ICR mice (Charles River Laboratories Japan) at a dose of 10 mL/kg. Using an EDTA 2K-treated capillary tube, blood samples were collected from the tail vein before administration and 30 minutes after administration. The blood samples were centrifuged at 6000 rpm for 2 minutes to separate plasma. […] The inhibition was determined from the decrease in the enzymatic activity from the initial activity (% inhibition={(activity before administration−activity after administration)/(activity before administration)}×100).

T2 sequence (P28843 whole entry): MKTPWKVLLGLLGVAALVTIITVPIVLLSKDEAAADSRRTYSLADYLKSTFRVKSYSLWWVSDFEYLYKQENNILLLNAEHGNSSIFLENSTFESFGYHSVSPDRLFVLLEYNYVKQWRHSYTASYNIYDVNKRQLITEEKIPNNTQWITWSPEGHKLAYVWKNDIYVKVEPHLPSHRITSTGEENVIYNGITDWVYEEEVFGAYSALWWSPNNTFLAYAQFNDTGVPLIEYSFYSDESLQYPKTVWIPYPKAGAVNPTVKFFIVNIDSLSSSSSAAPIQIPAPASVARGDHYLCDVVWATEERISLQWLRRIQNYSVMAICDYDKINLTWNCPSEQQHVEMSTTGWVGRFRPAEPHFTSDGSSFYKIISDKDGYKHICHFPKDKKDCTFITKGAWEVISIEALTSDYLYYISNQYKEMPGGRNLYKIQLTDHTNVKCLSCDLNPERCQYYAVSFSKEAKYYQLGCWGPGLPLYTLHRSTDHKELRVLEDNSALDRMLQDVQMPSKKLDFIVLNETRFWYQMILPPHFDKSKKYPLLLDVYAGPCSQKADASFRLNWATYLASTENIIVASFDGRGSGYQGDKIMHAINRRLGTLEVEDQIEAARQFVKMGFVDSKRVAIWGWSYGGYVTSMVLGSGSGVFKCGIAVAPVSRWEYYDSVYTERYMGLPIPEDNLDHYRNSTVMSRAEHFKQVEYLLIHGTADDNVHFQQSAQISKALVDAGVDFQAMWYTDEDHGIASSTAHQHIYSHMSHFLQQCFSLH
T1 sequence (P27487 whole entry): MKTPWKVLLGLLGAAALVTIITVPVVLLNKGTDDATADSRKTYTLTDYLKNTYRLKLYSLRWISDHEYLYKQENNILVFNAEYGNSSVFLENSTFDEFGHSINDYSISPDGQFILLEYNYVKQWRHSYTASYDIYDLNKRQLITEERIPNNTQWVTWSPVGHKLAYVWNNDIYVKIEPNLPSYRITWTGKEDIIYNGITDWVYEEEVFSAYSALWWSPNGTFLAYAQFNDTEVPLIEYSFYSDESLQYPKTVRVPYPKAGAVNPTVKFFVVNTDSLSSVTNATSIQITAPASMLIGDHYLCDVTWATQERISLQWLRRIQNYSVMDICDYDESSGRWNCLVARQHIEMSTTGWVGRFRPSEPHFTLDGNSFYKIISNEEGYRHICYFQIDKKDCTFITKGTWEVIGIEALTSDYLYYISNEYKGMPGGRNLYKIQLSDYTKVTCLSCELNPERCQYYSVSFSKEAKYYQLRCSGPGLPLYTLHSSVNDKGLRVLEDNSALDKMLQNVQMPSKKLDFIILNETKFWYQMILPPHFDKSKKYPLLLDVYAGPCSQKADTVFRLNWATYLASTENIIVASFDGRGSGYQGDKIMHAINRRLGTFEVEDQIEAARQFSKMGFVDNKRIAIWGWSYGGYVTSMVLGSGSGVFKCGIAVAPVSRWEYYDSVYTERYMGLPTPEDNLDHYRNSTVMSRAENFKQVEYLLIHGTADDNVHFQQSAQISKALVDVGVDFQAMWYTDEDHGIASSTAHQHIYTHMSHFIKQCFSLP

For `CC(C)COC(=O)C12CCC(NCC(=O)N3C[C@@H](F)C[C@H]3C#N)(CC1)CC2` [Example 11, (2S,4S)-4-fluoro-1-[[N-[4-(2-methylpropyl)oxycarbonylbicyclo[2.2.2]oct-1-yl]amino]acetyl]pyrrolidine-2-carbonitrile], the midpoint of inhibition in experiment [1], the IC50, lay at 0.13 nM. In experiment [2], the inhibition (usually how much of the control response was suppressed) at 100 µg/mL (stock) turned out to be 93%.

With `N#C[C@@H]1C[C@H](F)CN1C(=O)CNC12CCC(C(=O)OCC3CC3)(CC1)CC2` [Example 9, (2S,4S)-1-[[N-(4-cyclopropylmethyloxycarbonylbicyclo[2.2.2]oct-1-yl)amino]acetyl]-4-fluoropyrrolidine-2-carbonitrile], it took 0.48 nM to reach half-maximal inhibition in experiment [1] (IC50). In experiment [2], the inhibition at 100 µg/mL (stock) was found to be 94%.

With `CCOC(=O)C12CCC(NCC(=O)N3C[C@@H](F)C[C@H]3C#N)(CC1)CC2` [Example 1, (2S,4S)-1-[[N-(4-ethoxycarbonylbicyclo[2.2.2]oct-1-yl)amino]acetyl]-4-fluoropyrrolidine-2-carbonitrile], the IC50 – broadly, the concentration needed to halve the response being measured – in experiment [1] was 0.25 nM. For the same compound, the inhibition at 100 µg/mL (stock) in experiment [2] amounted to 100%.

In experiment [1], `N#C[C@@H]1C[C@H](F)CN1C(=O)CNC12CCC(C(=O)OCc3ccc(C(F)(F)F)cc3)(CC1)CC2` [Example 10, (2S,4S)-4-fluoro-1-[[N-[4-(4-trifluoromethylbenzyl)oxycarbonylbicyclo[2.2.2]oct-1-yl]amino]acetyl]pyrrolidine-2-carbonitrile] gave a half-maximal inhibitory concentration (IC50) of 0.23 nM.

Values taken from patent US8053465B2, “Bicycloester derivative” (Kyorin Pharmaceutical Co., Ltd., priority 2004, dated 2011).
